Target: Phosphodiesterase 4 (Homo sapiens, UniProt P27815+Q08499+Q07343+Q08493)
Assay: Inhibition of PDE4 isolated from human U937 cells using [3H]-cAMP as substrate after 30 mins by liquid scintillation counting analysis
Format: cell-free
Details: u-937

| SMILES | IC50 |
| --- | --- |
| O=C(Nc1cccnc1)C(=O)c1cc(Cc2ccccc2)n2ccccc12 | 348 nM |
| O=C(Nc1cccnc1)C(=O)c1cc(Cc2ccc(F)cc2)n2ccccc12 | 341 nM |
| O=C(Nc1cccnc1)C(=O)c1cc(Cc2ccc(Cl)cc2)n2ccccc12 | 165 nM |
| COc1ccc(Cc2cc(C(=O)C(=O)Nc3cccnc3)c3ccccn23)cc1 | 447 nM |
| O=C(Nc1cccnc1)C(=O)c1cc(Cc2ccc(O)cc2)n2ccccc12 | 327 nM |
| O=C(Nc1cccnc1)C(=O)c1cc(Cc2ccc([N+](=O)[O-])cc2)n2ccccc12 | 569 nM |
| Nc1ccc(Cc2cc(C(=O)C(=O)Nc3cccnc3)c3ccccn23)cc1 | 824 nM |
| N#Cc1ccc(Cc2cc(C(=O)C(=O)Nc3cccnc3)c3ccccn23)cc1 | 719 nM |
| O=C(Nc1cccnc1)C(=O)c1cc(Cc2ccc(C(F)(F)F)cc2)n2ccccc12 | 372 nM |
| CC(C)c1ccc(Cc2cc(C(=O)C(=O)Nc3cccnc3)c3ccccn23)cc1 | 362 nM |
| O=C(Nc1cccnc1)C(=O)c1cc(Cc2ccc(F)cc2)n2ccc(O)cc12 | 414 nM |
| O=C(Nc1cccnc1)C(=O)c1cc(Cc2ccc(F)cc2)n2ccc(Cl)cc12 | 239 nM |
| COc1ccn2c(Cc3ccc(Cl)cc3)cc(C(=O)C(=O)Nc3cccnc3)c2c1 | 1000 nM |
| N#Cc1ccc(Cc2cc(C(=O)C(=O)Nc3cccnc3Cl)c3ccccn23)cc1 | 4700 nM |
| O=C(Nc1c(Cl)ccnc1Cl)C(=O)c1cc(Cc2ccc(Cl)cc2)n2ccccc12 | 84 nM |
| N#Cc1ccc(Cc2cc(C(=O)C(=O)Nc3c(Cl)ccnc3Cl)c3ccccn23)cc1 | 250 nM |
| O=C(Nc1c(Br)ccnc1Br)C(=O)c1cc(Cc2ccc(F)cc2)n2ccccc12 | 10000 nM |
| COc1ccnc(OC)c1NC(=O)C(=O)c1cc(Cc2ccc(C#N)cc2)n2ccccc12 | 10000 nM |
| COc1ccc(NC(=O)C(=O)c2cc(Cc3ccc(C#N)cc3)n3ccccc23)cn1 | 1500 nM |
| N#Cc1ccc(Cc2cc(C(=O)C(=O)Nc3c(Cl)cncc3Cl)c3ccccn23)cc1 | 116 nM |

| SMILES | IC50 |
| --- | --- |
| O=C(Nc1c(Cl)cncc1Cl)C(=O)c1cc(Cc2ccc(Cl)cc2)n2ccccc12 | 16 nM |
| COc1ccc(Cc2cc(C(=O)C(=O)Nc3c(Cl)cncc3Cl)c3ccccn23)cc1 | 40 nM |
| O=C(Nc1c(Cl)cncc1Cl)C(=O)c1cc(Cc2ccc(O)cc2)n2ccccc12 | 15 nM |
| O=C(Nc1c(Cl)cncc1Cl)C(=O)c1cc(Cc2ccc(Cl)cc2)n2ccc(Cl)cc12 | 26 nM |
| O=C(Nc1c(Cl)cncc1Cl)C(=O)c1cc(Cc2ccc(F)cc2)n2ccc(Cl)cc12 | 28 nM |
| O=C(Nc1c(Cl)cncc1Cl)C(=O)c1cc(Cc2ccc(F)cc2)n2ccc(F)cc12 | 13 nM |
| O=C(Nc1c(Cl)cncc1Cl)C(=O)c1cc(Cc2ccc(O)cc2)n2ccc(Cl)cc12 | 2 nM |
| COc1ccc(Cc2cc(C(=O)C(=O)Nc3c(Cl)cncc3Cl)c3cc(Cl)ccn23)cc1 | 12 nM |
| N#Cc1ccc(Cc2cc(C(=O)C(=O)Nc3c(Cl)cncc3Cl)c3cc(Cl)ccn23)cc1 | 82 nM |
| O=C(Nc1c(Cl)c[n+]([O-])cc1Cl)C(=O)c1cc(Cc2ccc(F)cc2)n2ccc(Cl)cc12 | 54 nM |
| O=C(Nc1c(Cl)c[n+]([O-])cc1Cl)C(=O)c1cc(Cc2ccc(F)cc2)n2ccc(F)cc12 | 18 nM |
| O=C(Nc1c(Cl)c[n+]([O-])cc1Cl)C(=O)c1cc(Cc2ccc(Cl)cc2)n2ccccc12 | 19 nM |
| COc1ccc(Cc2cc(C(=O)C(=O)Nc3c(Cl)c[n+]([O-])cc3Cl)c3ccccn23)cc1 | 80 nM |
| O=C(Nc1c(Cl)c[n+]([O-])cc1Cl)C(=O)c1cc(Cc2ccc(O)cc2)n2ccccc12 | 29 nM |
| O=C(Nc1c(Cl)cccc1Cl)C(=O)c1cc(Cc2ccc(F)cc2)n2ccccc12 | 10000 nM |
| O=C(Nc1c(Cl)cc(C(F)(F)F)cc1Cl)C(=O)c1cc(Cc2ccc(F)cc2)n2ccccc12 | 10000 nM |
| O=C(Nc1c(Cl)cncc1Cl)C(=O)c1cc(Cc2ccc(F)cc2)c2ccccn12 | 6 nM |
| O=C(Nc1c(Cl)c[n+]([O-])cc1Cl)C(=O)c1cc(Cc2ccc(F)cc2)c2ccccn12 | 29 nM |
| O=C(Nc1c(Cl)cncc1Cl)C(=O)c1cn(Cc2ccc(F)cc2)c2ccc(O)cc12 [AWD-12-281] | 14 nM |
